Test results from patent US20230295152A1 (SENDA BIOSCIENCES, INC., priority 2019, published 2023).
Converted amounts (≈) assume the structure as drawn. Where two headings read alike, the source gives them in different places.

Experiments:
[1] = Solubility Determination Assay in PBS pH 1.6 and pH 7.4; format: physicochemical; conditions: PBS buffer, aqueous buffer, kinetic from dmso stock
Procedure, shortened: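 Compounds from 10 mM DMSO stock diluted into PBS pH 1.6 or pH 7.4 (15 μL into 485 μL), stirred 2 hours, then filtered. Filtrate quantified by LC-MS/MS against a standard of known concentration with internal standard; single determination.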

[2] = Hepatocyte Stability Assay, human; format: in vitro ADME; conditions: for CLint scaled at 1 μM: cryopreserved hepatocytes in suspension, human hepatocytes, read-out: Human hepatocyte clearance
[3] = PBS pH 1.6, 25° C., read-out: Aq. Solubility at pH = 1.6
[4] = PBS pH 7.4, 25° C., read-out: Aq. Solubility at pH = 7.4

Compound | solubility at 2 h [1, 3] | solubility at 2 h [1, 4] | CLint scaled at 1 μM [2] | Human hepatocyte intrinsic clearance, suspension Hheps ClInt (% Qh) ([2]; suspension human hepatocytes)
C[C@@H](CO)n1cnc2c(-n3ccnc3)nc(-c3ccc(OC(F)(F)F)cc3)cc2c1=O [Compound 44, (S)-3-(1-hydroxypropan-2-yl)-8-(1H-imidazol-1-yl)-6-(4-(trifluoromethoxy)-phenyl)pyrido[3,4-d]pyrimidin-4(3H)-one] |  | 0.1 to 1 µM (≈ 0.0431 to 0.431 µg/mL) | < 20 mL/min/kg | 
CC(C)(O)Cn1cnc2c(-c3cnsc3)nc(-c3ccc(C(F)(F)F)nc3)cc2c1=O [Compound 54] | ≥ 1 µM | ≥ 1 µM | < 20 mL/min/kg | 
C[C@@H](CO)n1cnc2c(-c3cccnc3)nc(-c3ccc(OC(F)(F)F)cc3)cc2c1=O [Compound 22] | ≥ 1 µM | ≥ 1 µM | < 20 mL/min/kg | 
CC(C)(O)Cn1cnc2c(-c3cccnc3)nc(-c3ccc(C(F)(F)F)nc3)cc2c1=O [Compound 9] | ≥ 1 µM | ≥ 1 µM | < 20 mL/min/kg | <31 % Qh
C[C@H](n1cnc2c(-c3cccnc3)nc(-c3cccnc3)cc2c1=O)C(C)(C)O [Compound 34] | ≥ 1 µM | ≥ 1 µM | < 20 mL/min/kg | 
O=c1c2cc(-c3ccc(Cl)cc3)nc(-c3cccnc3)c2ncn1C[C@@H](O)C(F)(F)F (single isomer, unassigned) [185 enantiomer 1] | ≥ 1 µM | 0.1 to 1 µM (≈ 0.0447 to 0.447 µg/mL) | < 20 mL/min/kg | 
O=c1c2cc(-c3ccc(Cl)cc3)nc(-c3cccnc3)c2ncn1C[C@H](O)C(F)(F)F (single isomer, unassigned) [185 enantiomer 2] | ≥ 1 µM | 0.1 to 1 µM (≈ 0.0447 to 0.447 µg/mL) | < 20 mL/min/kg | 
C[C@@H](n1cnc2c(-c3cnn(C)c3)nc(-c3ccc(Cl)cc3)cc2c1=O)C(C)(C)O [Compound 31] |  | 0.1 to 1 µM (≈ 0.0424 to 0.424 µg/mL) | < 20 mL/min/kg | 
O=c1c2cc(-c3ccc(Cl)cc3)nc(-c3cccnc3)c2ncn1[C@@H]1COC[C@H]1O [Compound 152, 6-(4-chlorophenyl)-3-((3R,4S)-4-hydroxytetrahydrofuran-3-yl)-8-(pyridin-3-yl)pyrido[3,4-d]pyrimidin-4(3H)-one] | ≥ 1 µM | ≥ 1 µM | 20 to 50 mL/min/kg | 
C[C@@H](n1cnc2c(-c3cccnc3)nc(-c3ccc(Cl)cc3)cc2c1=O)C(C)(C)O [Compound 33] |  | < 0.1 µM | < 20 mL/min/kg | 
C[C@@H](CO)n1cnc2c(-c3cncc(F)c3)nc(-c3ccc(OC(F)(F)F)cc3)cc2c1=O [Compound 1, (S)-8-(5-fluoropyridin-3-yl)-3-(1-hydroxypropan-2-yl)-6-(4-(trifluoromethoxy)phenyl)pyrido[3,4-d]pyrimidin-4(3H)-one] |  | 0.1 to 1 µM (≈ 0.046 to 0.46 µg/mL) | < 20 mL/min/kg | 
C[C@@H](CO)n1cnc2c(-c3cnn(C)c3)nc(-c3ccc(OC(F)(F)F)cc3)cc2c1=O [Compound 25] | 0.1 to 1 µM (≈ 0.0445 to 0.445 µg/mL) | < 0.1 µM | < 20 mL/min/kg | 
O=c1c2cc(-c3ccc(Cl)cc3)nc(-c3cccnc3)c2ncn1[C@@H]1COC[C@@H]1O (stereo in doubt) [Compound 71] | ≥ 1 µM | ≥ 1 µM | < 20 mL/min/kg | 

Continued, in another order:

solubility at 2 h [1, 3] | solubility at 2 h [1, 4] | CLint scaled at 1 μM [2] | Compound | Human hepatocyte intrinsic clearance, suspension Hheps ClInt (% Qh) ([2]; suspension human hepatocytes)
0.1 to 1 µM (≈ 0.0458 to 0.458 µg/mL) | 0.1 to 1 µM (≈ 0.0458 to 0.458 µg/mL) | < 20 mL/min/kg | Cn1cc(-c2nc(-c3ccc(C(F)(F)F)cn3)cc3c(=O)n([C@H]4COC[C@H]4O)cnc23)cn1 [Compound 151, 3-((3S,4S)-4-hydroxytetrahydrofuran-3-yl)-8-(1-methyl-1H-pyrazol-4-yl)-6-(5-(trifluoromethyl)pyridin-2-yl)pyrido[3,4-d]pyrimidin-4(3H)-one] | 
≥ 1 µM | 0.1 to 1 µM (≈ 0.0456 to 0.456 µg/mL) | < 20 mL/min/kg | Cn1cc(-c2nc(-c3ccc(C4CC4)nc3)cc3c(=O)n(C[C@H](O)C(F)(F)F)cnc23)cn1 [Compound 136, (S)-6-(6-cyclopropylpyridin-3-yl)-8-(1-methyl-1H-pyrazol-4-yl)-3-(3,3,3-trifluoro-2-hydroxypropyl)pyrido[3,4-d]pyrimidin-4(3H)-one] | 
≥ 1 µM | ≥ 1 µM | < 20 mL/min/kg | O=c1c2cc(-c3ccc(C(F)(F)F)nc3)nc(-c3cccnc3)c2ncn1C[C@H](O)C(F)(F)F [Compound 57] | 
≥ 1 µM | ≥ 1 µM | < 20 mL/min/kg | C[C@@H](CO)n1cnc2c(-n3ccnc3)nc(-c3ccc(C(F)(F)F)cn3)cc2c1=O [Compound 162, (S)-3-(1-hydroxypropan-2-yl)-8-(1H-imidazol-1-yl)-6-(5-(trifluoromethyl)pyridin-2-yl)pyrido[3,4-d]pyrimidin-4(3H)-one] | 
≥ 1 µM | ≥ 1 µM | 20 to 50 mL/min/kg | C[C@@H](CO)n1cnc2c(-c3cccnc3)nc(-c3cnc(C4CC4)s3)cc2c1=O [Compound 66] | 
0.1 to 1 µM (≈ 0.0433 to 0.433 µg/mL) | 0.1 to 1 µM (≈ 0.0433 to 0.433 µg/mL) | < 20 mL/min/kg | C[C@@H](CO)n1cnc2c(-c3cnsc3)nc(-c3ccc(C(F)(F)F)cn3)cc2c1=O [Compound 102, (S)-3-(1-hydroxypropan-2-y1)-8-(isothiazol-4-yl)-6-(5-(trifluoromethyl)pyridin-2-yl)pyrido[3,4-d]pyrimidin-4(3H)-one] | 
0.1 to 1 µM (≈ 0.0424 to 0.424 µg/mL) | < 0.1 µM | < 20 mL/min/kg | Cn1cc(-c2nc(-c3ccc(Cl)cc3)cc3c(=O)n([C@H]4COC[C@H]4O)cnc23)cn1 [Compound 92] | 
≥ 1 µM | ≥ 1 µM | < 20 mL/min/kg | C[C@@H](O)Cn1cnc2c(-c3cccnc3)nc(-c3ccc(C(F)(F)F)cn3)cc2c1=O [Compound 144, (R)-3-(2-hydroxypropyl)-8-(pyridin-3-yl)-6-(5-(trifluoromethyl)pyridin-2-yl)pyrido[3,4-d]pyrimidin-4(3H)-one] | 
≥ 1 µM | ≥ 1 µM | 20 to 50 mL/min/kg | C[C@@H](CO)n1cnc2c(-c3cnsc3)nc(-c3ccc(C(F)(F)F)nc3)cc2c1=O [Compound 55] | 
≥ 1 µM | ≥ 1 µM | < 20 mL/min/kg | C[C@@H](CO)n1cnc2c(-n3ccnc3)nc(-c3ccc(C(F)(F)F)nc3)cc2c1=O [Compound 163, (S)-3-(1-hydroxypropan-2-yl)-8-(1H-imidazol-1-yl)-6-(6-(trifluoromethyl)pyridin-3-yl)pyrido[3,4-d]pyrimidin-4(3H)-one] | 
≥ 1 µM | ≥ 1 µM | < 20 mL/min/kg | CC(C)(O)Cn1cnc2c(-n3ccnc3)nc(-c3ccc(C(F)(F)F)cn3)cc2c1=O [Compound 160, 3-(2-hydroxy-2-methylpropyl)-8-(1H-imidazol-1-yl)-6-(5-(trifluoromethyl)pyridin-2-yl)pyrido[3,4-d]pyrimidin-4(3H)-one] | 
≥ 1 µM | ≥ 1 µM | < 20 mL/min/kg | O=c1c2cc(-c3ccc(C(F)(F)F)cn3)nc(-c3cccnc3)c2ncn1C[C@@H](O)C(F)(F)F [Compound 154, (R)-8-(pyridin-3-yl)-3-(3,3,3-trifluoro-2-hydroxypropyl)-6-(5-(trifluoromethyl)pyridin-2-yl)pyrido[3,4-d]pyrimidin-4(3H)-one] | 
≥ 1 µM | ≥ 1 µM | < 20 mL/min/kg | O=c1c2cc(-c3ccc(C(F)(F)F)cn3)nc(-c3cccnc3)c2ncn1[C@@H]1COC[C@H]1O [Compound 140, 3-((3R,4S)-4-hydroxytetrahydrofuran-3-yl)-8-(pyridin-3-yl)-6-(5-(trifluoromethyl)pyridin-2-yl)pyrido[3,4-d]pyrimidin-4(3H)-one] | 
≥ 1 µM | ≥ 1 µM | < 20 mL/min/kg | Cn1cc(-c2nc(-c3ccc(C(F)(F)F)nc3)cc3c(=O)n(CC(C)(C)O)cnc23)cn1 [Compound 60] | 
≥ 1 µM | ≥ 1 µM | < 20 mL/min/kg | Cc1nc(-c2cc3c(=O)n([C@@H](C)CO)cnc3c(-c3cccnc3)n2)cs1 [Compound 183, (S)-3-(1-hydroxypropan-2-yl)-6-(2-methylthiazol-4-yl)-8-(pyridin-3-yl)pyrido[3,4-d]pyrimidin-4(3H)-one] | 
≥ 1 µM | 0.1 to 1 µM (≈ 0.0455 to 0.455 µg/mL) | < 20 mL/min/kg | O=c1c2cc(-c3ccc(C(F)(F)F)cn3)nc(-c3cccnc3)c2ncn1[C@H]1COC[C@H]1O [Compound 145, 3-((3S,4S)-4-hydroxytetrahydrofuran-3-yl)-8-(pyridin-3-yl)-6-(5-(trifluoromethyl)pyridin-2-yl)pyrido[3,4-d]pyrimidin-4(3H)-one] | 
≥ 1 µM | ≥ 1 µM | < 20 mL/min/kg | O=c1c2cc(-c3ccc(C(F)(F)F)nc3)nc(-c3cccnc3)c2ncn1C[C@@H](O)C(F)(F)F [Compound 122, (R)-8-(pyridin-3-yl)-3-(3,3,3-trifluoro-2-hydroxypropyl)-6-(6-(trifluoromethyl)pyridin-3-yl)pyrido[3,4-d]pyrimidin-4(3H)-one] | 
